Assay results published in patent publication US8338637B2, “Therapeutic compounds” (Allergan, Inc., priority 2006, dated 2012).

What was measured:
EP4 receptors = biological target: T1, EP4 receptors (Homo sapiens, UniProt P35408); assay: Radioligand binding, EP4 receptor; details: [3H]PGE2 competition
T1 construct: expressed in transfected cells; host or cells: HEK-293 cells (membrane fraction)
Procedure: HEK-293 cells stably expressing the human or feline FP receptor, or EP1, EP2, or EP4 receptors were washed with TME buffer, scraped from the bottom of the flasks, and homogenized for 30 sec using a Brinkman PT 10/35 polytron. TME buffer was added to achieve a final 40 ml volume in the centrifuge tubes (the composition of TME is 100 mM TRIS base, 20 mM MgCl2, […]; 10N HCl is added to achieve a pH of 7.4).
The cell homogenate was centrifuged at 19000 r.p.m. for 20 min at 4° C. using a Beckman Ti-60 rotor. The resultant pellet was resuspended in TME buffer to give a final 1 mg/ml protein concentration, as determined by Biorad assay. Radioligand binding competition assays vs. [^3H-]17-phenyl PGF2[…] (5 nM) were performed in a 100 μl volume for 60 min. Binding reactions were started by adding plasma membrane fraction. The reaction was terminated by the addition of 4 ml ice-cold TRIS-HCl buffer and rapid filtration through glass fiber GF/B filters using a Brandel cell harvester. The filters were washed 3 times with ice-cold buffer and oven dried for one hour.
[^3H-] PGE2 (specific activity 180 Ci mmol) was used as the radioligand for EP receptors. [^3H] 17-phenyl PGF2α was employed for FP receptor binding studies. […] 17-phenyl PGF2α and non-specific binding determined with 10^−5M of unlabeled PGE2, or 17-phenyl PGF2α, according to receptor subtype studied.

EP2 [1] = biological target: T2, EP2 (Homo sapiens, UniProt P43116); assay: cAMP assay, HEK-EBNA cells expressing EP2; type: cell-based; set-up: expressed in transfected cells; host or cells: HEK-EBNA cells
Procedure: A 384-well drug plate was prepared to contain 6 test compounds, PGE2 and cAMP in 16 serial dilutions in triplicate, using a Biomek station. HEK-EBNA cells expressing a target PG receptor subtype (EP2 or EP4) were suspended in a stimulation buffer (HBSS, 0.1% BSA, 0.5 mM IBMX and 5 mM HEPES, pH 7.4) in a density of 10^4 cells/5 μl. The reaction was initiated by mixing 5 μL drug dilutions with 5 μl of HEK-EBNA cells in a well, carried out for 30 min at room temperature, and followed by the addition of 5 μl anti-cAMP acceptor beads in the control buffer with Tween-20 (25 mM NaCl, 0.03% Tween-20, 5 mM HEPES, pH7.4). After 30 min in the dark at room temperature, the mixtures were incubated with 15 μl biotinylated-cAMP/strepavidin donor beads in Lysis/Detection buffer (0.1% BSA, 0.3% Tween-20 and 5 mM HEPES, pH7.4) for 45 min at the room temperature. Fluorescence changes were read using a Fusion-alpha HT microplate reader.

EP2 [2] = biological target: T2, EP2; assay: Competition binding, [3H]PGE2, HEK 293 cells expressing human EP2 receptors; set-up: expressed in transfected cells; host or cells: HEK 293 cells (membranes or whole cells); details: [3H]PGE2 competition
Procedure: Competition binding experiments were performed in a medium containing Hank's balanced salt solution, Hepes 20 mM, pH 7.3, membranes (˜60 μg protein) or 2×10^5 cells from HEK 293 cells stably expressing human EP2 receptors, [^3H]PGE2 (10 nM) and various concentrations of test compounds in a total volume of 300 μl. Reaction mixtures were incubated at 23° C. for 60 min, and were filtered over Whatman GF/B filters under vacuum. Filters were washed three times with 5 ml ice-cold buffer containing 50 mM Tris/HCl (pH 7.3). Non-specific binding was estimated in the presence of excess unlabeled PGE2 (10 μM). Binding data fitted to the binding model for a single class of binding sites, using nonlinear regression analysis. IC50 values thus obtained were converted to Ki using the equation of Ki=(IC50/(1+[L]/KD) where [L] represents PGE2 concentration (10 nM) and KD the dissociation constant for [^3H]PGE2 at human EP2 receptors (40 nM). […]
The cell homogenate was centrifuged at 19000 r.p.m. for 20 min at 4° C. using a Beckman Ti-60 rotor. The resultant pellet was resuspended in TME buffer to give a final 1 mg/ml protein concentration, as determined by Biorad assay. […]
[^3H-] […] 17-phenyl PGF2α and non-specific binding determined with 10^−5M of unlabeled PGE2, or 17-phenyl PGF2α, according to receptor subtype studied.

T2 sequence (P43116 whole entry): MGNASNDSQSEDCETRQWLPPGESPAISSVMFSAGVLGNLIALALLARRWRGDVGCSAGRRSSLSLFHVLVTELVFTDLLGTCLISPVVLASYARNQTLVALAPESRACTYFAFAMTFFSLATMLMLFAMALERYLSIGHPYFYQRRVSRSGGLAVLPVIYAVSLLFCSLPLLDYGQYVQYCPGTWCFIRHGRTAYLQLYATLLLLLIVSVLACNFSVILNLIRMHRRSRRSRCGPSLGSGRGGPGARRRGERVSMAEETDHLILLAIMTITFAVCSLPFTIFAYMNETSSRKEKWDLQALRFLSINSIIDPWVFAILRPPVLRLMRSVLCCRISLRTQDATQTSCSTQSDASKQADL
T1 sequence (P35408 whole entry): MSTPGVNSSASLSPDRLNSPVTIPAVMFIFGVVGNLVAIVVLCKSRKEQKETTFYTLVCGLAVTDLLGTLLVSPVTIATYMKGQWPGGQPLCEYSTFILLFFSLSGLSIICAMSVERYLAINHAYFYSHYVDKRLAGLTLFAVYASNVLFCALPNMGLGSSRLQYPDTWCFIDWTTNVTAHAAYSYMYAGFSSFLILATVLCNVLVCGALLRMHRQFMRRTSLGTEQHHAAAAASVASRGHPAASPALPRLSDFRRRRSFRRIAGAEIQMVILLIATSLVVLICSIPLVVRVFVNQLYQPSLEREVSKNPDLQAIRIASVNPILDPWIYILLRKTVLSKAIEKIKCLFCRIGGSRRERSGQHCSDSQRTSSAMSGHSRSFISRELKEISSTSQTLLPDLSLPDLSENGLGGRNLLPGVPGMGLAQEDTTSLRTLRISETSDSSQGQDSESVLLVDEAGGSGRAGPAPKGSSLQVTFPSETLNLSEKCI

Row | Ki (EP4 receptors) [nM] | EC50 (EP2 [1]) [nM] | Ki (EP2 [2]) [nM] | SMILES
1 | > 10000 | 457 | 300 | O=C(O)c1ccc(CCC[C@H]2CCC(=O)[C@@H]2COc2cc(Cl)cc(CO)c2)s1 [5-{3-[(1S,2S)-2-(3-Chloro-5-hydroxymethyl-phenoxymethyl)-3-oxo-cyclopentyl]-propyl}thiophene-2-carboxylic acid]
2 | – | 8.7 | 201 | O=C(O)c1ccc(CCC[C@H]2C=CC(=O)[C@@H]2COc2cc(Cl)cc(CO)c2)s1 [5-{3-[(1S,5S)-5-(3-Chloro-5-hydroxymethyl-phenoxymethyl)-4-oxo-cyclopent-2-enyl]-propyl}-thiophene-2-carboxylic acid]
